According to US11696581B2, “Monoterpenoid/phenylpropanoid-containing compounds and methods of their making and use as seed treatments” (KITTRICH CORPORATION, priority 2016, dated 2023):

Assays:
Format in all cases: in vivo
corn seeds = assay: Germination assays of coated corn seeds; settings: 3 days dark then one week in soil, root mats and radicals emerged or not
Description: Germination of seeds was performed by carefully applying 500 μL of de-ionized water in order to fully surround each seed with water at the bottom of the cup. Parafilm wax was placed over the top of the cup to maintain moisture and encourage germination of the seeds. Cups containing moistened seeds were allowed to germinate in the dark for 3 days before 30 g of soil was introduced into the cup, with 4.5 mL of water added to the soil to moisten it. Seeds were allowed to grow for one week before removing the soil and assessing total germination. Germination was quantified as whether or not root mats and radicals emerged from the moistened seed casing. The total number of seeds in each cup (out of three seeds) that germinated were quantified. Over 4 replicates of this experiment were performed for each monoterpenoid derivative treatment screened.

[1] = tested on: Western corn rootworm larvae; assay: Western corn rootworm survival assay (treated corn seeds); settings: corn seeds coated 1% weight/weight; 6 neonatal larvae per cup; 7 days at 28° C.; α=0.05; control survival 67.8±3.7%
Description: Solo® condiment cups with lids. Germination of seeds was performed by carefully applying 500 μL of de-ionized water in order to fully surround each seed with water at the bottom of the cup. Parafilm® wax was placed over the top of the cup to maintain moisture and encourage germination of the seeds. Cups containing moistened seeds were allowed to germinate in the dark for 3 days before the start of the assay. Six live neonatal Western corn rootworm larvae were carefully applied to the roots of germinated corn seeds for each cup. After applying the larvae to the roots, 30 g of dried soil, sieved with a 600-μm Fisher Brand sieve and moistened with 4.5 mL of water, was applied evenly throughout the cup. Organza was placed over the top of the cup and fastened in place with a cup lid. Cups were incubated at 28° C. in 40-50% humidity for 7 days. Surviving corn rootworm were enumerated and the average percentage survival was reported. A minimum of 10 replicates were performed for each treatment.

[2] = tested on: Western corn rootworm larvae; assay: Western corn rootworm repellency assay (treated vs untreated corn sides); settings: one week; for larval mortality (missing larvae declared dead) in repellency arena: one side treated seeds, control 20% declared dead; for repellency: larvae isolated from untreated end vs treated end: choice between treated and untreated corn, 30 larvae, control 52% treated side / 48% untreated side
Source text: Three treated seeds were germinated on one side of a plastic Genpack deli container (32 oz.) 5 days prior to infesting the container with western corn rootworm larvae. On the other side, three untreated seeds were germinated at the same time diagonally across from the treated seeds. Containers were infested by placing 30 rootworm into the middle of the container, on the top of the soil. Rootworm were allowed to choose which side to feed on primarily. Containers infested with western corn rootworm were incubated at 28° C. and 40±10% relative humidity for one week. After one week, containers were removed and soil was mechanically sifted through to quantify the number of living larvae. The total number of larvae present on the treated side vs. the untreated side were averaged from a minimum of three replicates. If repellency was observed (i.e. more rootworm found on the untreated side than the treated side), the experiment was repeated to confirm repellency in subsequent experiments. The number of rootworm missing were also enumerated. Data was averaged from a minimum of three replicates and over 90 larvae used in the total repellency assessment for each compound.

Molecule	inhibition of germination of corn seedlings (corn seeds)	larval survival compared to the control [1]	larval mortality (missing larvae declared dead) in repellency arena [2]	repellency: larvae isolated from untreated end vs treated end [2]	larvae associated with the treated corn side ([2]; average, choice arena, control approximately 52%) [%]
O=C(O)CCC(=O)OC/C=C/c1ccccc1 [cinnamyl hydrogen succinate]	most significant inhibitors of germination of corn seedlings	significantly lower larval survival than the control	–	–	–
CCCCCCCCCCCCCC(=O)OCC=Cc1ccccc1 [cinnamyl myristate]	–	significantly lower larval survival than the control	higher larval mortality that was statistically significant compared to the control	–	–
CC(C)=CCCC(C)CCOC(=O)CC(C)CCC=C(C)C (stereo not shown) [citronellyl citronellate]	–	significantly lower larval survival than the control	–	–	–
CC(C)=CCCC(C)CC(=O)OCCOC(=O)CC(C)CCC=C(C)C (stereo not shown) [ethylene dicitronellate, Ethylene dicitronellate]	–	significantly lower larval survival than the control	higher larval mortality that was statistically significant compared to the control	–	–
C=CCc1ccc(OC(=O)CC(C)CCC=C(C)C)c(OC)c1 (stereo not shown) [eugenyl citronellate]	most significant inhibitors of germination of corn seedlings	–	–	–	–
O=C(/C=C/c1ccccc1)OC1C(OC(=O)/C=C/c2ccccc2)C(OC(=O)/C=C/c2ccccc2)C(OC(=O)/C=C/c2ccccc2)C(OC(=O)/C=C/c2ccccc2)C1OC(=O)/C=C/c1ccccc1 (stereo not shown) [hexacinnamoyl inositol, hexacinnamoylinositol]	–	–	–	higher number of larvae to be isolated from the untreated end compared to the treated end	–
CC(C)=CCCC(C)CC(=O)OC1C(OC(=O)CC(C)CCC=C(C)C)C(OC(=O)CC(C)CCC=C(C)C)C(OC(=O)CC(C)CCC=C(C)C)C(OC(=O)CC(C)CCC=C(C)C)C1OC(=O)CC(C)CCC=C(C)C (stereo not shown) [inositol hexacitronellate, hexacitronelloylinositol]	most significant inhibitors of germination of corn seedlings	significantly lower larval survival than the control	–	higher number of larvae to be isolated from the untreated end compared to the treated end	22
Cc1ccc(C(C)C)c(OC(=O)/C=C/c2ccccc2)c1 [thymyl cinnamate]	–	significantly lower larval survival than the control	–	higher number of larvae to be isolated from the untreated end compared to the treated end	–
Cc1ccc(C(C)C)c(OC(=O)CCC(=O)O)c1 [thymyl hydrogen succinate]	–	significantly lower larval survival than the control	–	–	–
eugenyl succinate	–	significantly lower larval survival than the control	higher larval mortality that was statistically significant compared to the control	higher number of larvae to be isolated from the untreated end compared to the treated end	–
